Measured values: US20260364184A1, “COMPOUND BASED ON OXOISOINDOLINYL-SUBSTITUTED TETRAHYDROPYRIMIDINE-DIONE AND USE THEREOF” (GLUETACS THERAPEUTICS (SHANGHAI) CO., LTD., priority 2023, published 2026)
Where two headings read alike, the source gives them in different places. Blank lines part the entries; values can stand above or below the compound they belong to.

Legend:
Type in all cases: cell-based
[1] = tested on: Human B-Cell Lymphoma Cells (RPMI-8226); test: Inhibition of RPMI-8226 cell proliferation (CellTiter luminescent viability); settings: RPMI-8226, 500 nM, read-out: Inhibition Rate at 500 nM (%)
[2] = as above; settings: Homo sapiens, read-out: Inhibition Rate at 10 nM (%)
[3] = tested on: Human lung cancer cell line (H292); test: Inhibition of H292 cell proliferation (CellTiter luminescent viability); settings: NCI-H292, Table IM1, CDK9 inhibitor-based, 96 hours; for inhibition at 0.01 µM: H292, 10 nM, read-out: Inhibition Rate at 10 nM (%); for inhibition at 0.5 µM: H292, 500 nM, read-out: Inhibition Rate at 500 nM (%)
Method: The tumor cells used herein were cultured in a cell culture medium listed in table 3 at 37 °C in an incubator with 5% CO2. Prior to experimentation, all cell lines used were correctly identified by STR profiling, and tested negative for mycoplasma contamination using a mycoplasma detection kit through routine screenings.
The IC50 values of the compounds of the present disclosure (including the compounds in Table 1, Table 2, and Examples 1-468) were determined using the CellTiter-Meiluncell Luminescent Cell Viability Assay Kit from Dalian Meilun Biotech Co., Ltd. The detailed procedure is as follows: Tumor cells were seeded in 96-well cell culture plates at the densities specified in Table 4. On the following day, the test compounds of the present disclosure were subjected to serial dilution. The dilution can be performed according to one of the following two methods: • (1) The first dilution method: The test compounds of the present disclosure (including the compounds in Table 1, Table 2, and Examples 1-468) were subjected to 5-fold serial dilutions starting from a highest concentration of 2000 μM, resulting in a total of 9 concentrations from high to low (2000, 400, 80, 16, 3.2, 0.64, 0.128, 0.0256, 0.00512 μM). Subsequently, 0.5 μL of the test compound dilution was transferred into the 96-well plate containing the cells, with each well containing 100 μL of cell culture medium. […] Into the 96-well plate, the diluted test compounds and corresponding detection reagents were added, resulting in final test compound concentrations of 500 nM and 10 nM, respectively. The experimental procedure is described below using the diluted 2 μM test compound as an example.
0.5 μL of the aforementioned diluted compound of the present disclosure (including the compounds in Table 1, Table 2, and Examples 1-468) was added to the seeded cells in 100 μL of medium, yielding a final test compound concentration of 10 nM. After the cells were treated with the compounds of the present disclosure for a specified period, the cell viability assay reagent was added to the culture medium according to the kit's instructions to determine cell viability. […] All controls were treated using the same procedure as the compounds of the present disclosure. The growth inhibition curves for the compounds of the present disclosure were plotted using Prism GraphPad software, and the IC50 values were calculated therefrom.

[4] = target: T1, IRAK4 (Homo sapiens, UniProt Q9NWZ3); test: Western blot degradation of IRAK4; settings: hPBMC Cell; 24 hours
T1 construct: expression of target proteins in cells; endogenous in cells
T1 sequence (Q9NWZ3 1-460): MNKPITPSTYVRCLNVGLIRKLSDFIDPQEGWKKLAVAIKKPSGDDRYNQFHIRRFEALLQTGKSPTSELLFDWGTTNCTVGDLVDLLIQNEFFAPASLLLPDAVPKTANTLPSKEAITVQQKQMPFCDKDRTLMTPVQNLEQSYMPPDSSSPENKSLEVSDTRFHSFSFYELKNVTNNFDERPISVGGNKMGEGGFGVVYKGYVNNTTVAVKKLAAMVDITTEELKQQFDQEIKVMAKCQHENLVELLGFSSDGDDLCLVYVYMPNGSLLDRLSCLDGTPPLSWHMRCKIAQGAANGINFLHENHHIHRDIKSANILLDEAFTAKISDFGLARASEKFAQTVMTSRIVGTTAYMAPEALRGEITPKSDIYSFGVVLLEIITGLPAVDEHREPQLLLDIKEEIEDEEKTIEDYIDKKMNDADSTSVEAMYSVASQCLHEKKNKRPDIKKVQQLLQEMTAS
Method in brief: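 Compound-treated cells harvested; lysates denatured 5 min at 95 °C, run on SDS-PAGE, blotted to NC membrane, blocked 1 h RT, probed with antibodies. Densitometry vs DMSO → DC50; target normalised to internal control → % remaining, degradation = 1 − remaining.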

[5] = tested on: Human Acute T Lymphoblastic Leukemia Cells (Molt-4); test: Inhibition of Molt-4 cell proliferation (CellTiter luminescent viability); settings: Homo sapiens, MOLT-4, 96 h, Table IA2, IRAK4 inhibitor-based, 96 hours; for inhibition at 0.01 µM: Molt-4, 10 nM, read-out: Inhibition Rate at 10 nM (%); for inhibition at 0.5 µM: Molt-4, 500 nM, read-out: Inhibition Rate at 500 nM (%)
[6] = tested on: Human myeloid monocytic leukemia cell line (MV-4-11); test: Inhibition of MV-4-11 cell proliferation (CellTiter luminescent viability); settings: Homo sapiens, MV4-11, Table IA3, IRAK4 inhibitor-based, 96 hours
Method in brief: (§1)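 IC50 is fitted from luminescent viability (CellTiter-Meiluncell) curves. Nine-point, 5-fold dilution series (top stock 2000 μM) are added at 0.5 μL per 100 μL medium to cells plated the day before, with growth at 37 °C and 5% CO2.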

[7] = tested on: Human Multiple myeloma cell line (MM.1S); test: Inhibition of MM.1S cell proliferation (CellTiter luminescent viability); settings: Homo sapiens, MM1.S, Table IA5, IRAK4 inhibitor-based, 96 hours
Method in brief: as §1

[8] = Table IA4, IRAK4 inhibitor-based, 96 hours
[9] = Table IA4, IRAK4 inhibitor-based, RPMI-8226, 10 nM, 96 hours

SMILES: Cn1ncc(-c2nc(NC3CCN(Cc4ccc5c(c4)CN(N4CCC(=O)NC4=O)C5=O)CC3)ncc2Cl)c1CC1CC1 [GT-08212, 1-(5-((4-((5-chloro-4-(5-(cyclopropylmethyl)-1-methyl-1H-pyrazol-4-yl)pyrimidin-2-yl)amino)piperidin-1-yl)methyl)-1-oxoisoindolin-2-yl)dihydropyrimidine-2,4 (1H,3H)-dione]
- inhibition at 0.5 µM [1]: 5 to 10%
- inhibition at 0.01 µM ([2]; RPMI-8226, 10 nM): 20 to 30%
- inhibition at 0.01 µM [3]: 20 to 30%
- inhibition at 0.5 µM [3]: 30 to 40%

SMILES: O=C1CCN(N2C(=O)c3ccc(N4CCC(CN5CCN(c6ccc(CC(=O)Nc7cc(C8CCC8)[nH]n7)cc6)CC5)CC4)cc3C2=O)C(=O)N1 [GT-08350, N-(5-cyclobutyl-1H-pyrazol-3-yl)-2-(4-(4-((1-(2-(2,4-dioxotetrahydropyrimidin-1(2H)-yl)-1,3-dioxoisoindolin-5-yl)piperidin-4-yl)methyl)piperazin-1-yl)phenyl)acetamide]
- inhibition at 0.5 µM [1]: 20 to 30%
- inhibition at 0.01 µM ([2]; RPMI-8226, 10 nM): 10 to 20%
- inhibition at 0.01 µM [3]: 40 to 50%
- inhibition at 0.5 µM [3]: 40 to 50%

SMILES: N#CC1(CNc2cccc(-c3cc(NC4CCN(Cc5ccc6c(c5)C(=O)N(N5CCC(=O)NC5=O)C6=O)CC4)ncc3Cl)n2)CCOCC1 [GT-08215, 4-(((5′-chloro-2′-((1-((2-(2,4-dioxotetrahydropyrimidin-1(2H)-yl)-1,3-dioxoisoindolin-5-yl)methyl)piperidin-4-yl)amino)-[2,4′-bipyridin]-6-yl)amino)methyl)tetrahydro-2H-pyran-4-carbonitrile]
- inhibition at 0.5 µM [1]: 20 to 30%
- inhibition at 0.01 µM ([2]; RPMI-8226, 10 nM): 20 to 30%
- inhibition at 0.01 µM [3]: 20 to 30%
- inhibition at 0.5 µM [3]: 20 to 30%

SMILES: N#CC1(CNc2nc(-c3cc(NC4CCN(CC5CCN(c6ccc7c(c6)C(=O)N(N6CCC(=O)NC6=O)C7=O)CC5)CC4)ncc3Cl)cs2)CCOCC1 [GT-04719, 4-(((4-(5-chloro-2-((1-((1-(2-(2,4-dioxotetrahydropyrimidin-1(2H)-yl)-1,3-dioxoisoindolin-5-yl)piperidin-4-yl)methyl)piperidin-4-yl)amino)pyridin-4-yl)thiazol-2-yl)amino)methyl)tetrahydro-2H-pyran-4-carbonitrile]
- inhibition at 0.5 µM [1]: 20 to 30%
- inhibition at 0.01 µM ([2]; RPMI-8226, 10 nM): 10 to 20%
- inhibition at 0.01 µM [3]: 5 to 10%
- inhibition at 0.5 µM [3]: 15 to 20%

Continued, in another order:

- Degradation of substrate protein IRAK4 (substrate protein remaining %) [4]: A (0%≤substrate protein remaining %≤80%)
SMILES: COc1cc2nn([C@H]3CC[C@H](CN4CCN(c5ccc6c(c5F)C(=O)N(N5CCC(=O)NC5=O)C6=O)CC4)CC3)cc2cc1NC(=O)c1cccc(C(F)(F)F)c1 [GT-08669, N-(2-((1r,4r)-4-((4-(2-(2,4-dioxotetrahydropyrimidin-1(2H)-yl)-4-fluoro-1,3-dioxoisoindolin-5-yl)piperazin-1-yl)methyl)cyclohexyl)-6-methoxy-2H-indazol-5-yl)-3-(trifluoromethyl)benzamide]
- inhibition at 0.5 µM [1, 8]: 30 to 40%
- inhibition at 0.01 µM [2, 9]: 20 to 25%
- inhibition at 0.01 µM [5]: 20 to 40%
- inhibition at 0.5 µM [5]: 20 to 40%

- Degradation of substrate protein IRAK4 (substrate protein remaining %) [4]: A (0%≤substrate protein remaining %≤80%)
SMILES: O=C1CCN(N2Cc3cc(CN4CCN(c5ccc(-n6cc(NC(=O)c7coc(-c8ccnc(NCC(F)(F)F)c8)n7)c(C(F)F)n6)cc5)CC4)ccc3C2=O)C(=O)N1 [GT-05318, N-(3-(difluoromethyl)-1-(4-(4-((2-(2,4-dioxotetrahydropyrimidin-1(2H)-yl)-1-oxoisoindolin-5-yl)methyl)piperazin-1-yl)phenyl)-1H-pyrazol-4-yl)-2-(2-((2,2,2-trifluoroethyl)amino)pyridin-4-yl) oxazole-4-carboxamide]
- inhibition at 0.01 µM ([6]; MV-4-11, 10 nM, read-out: Inhibition Rate at 10 nM (%)): 80 to 100%
- inhibition at 0.5 µM ([6]; MV-4-11, 500 nM, read-out: Inhibition Rate at 500 nM (%)): 100 to 110%
- inhibition at 0.01 µM ([7]; 10 nM, read-out: Inhibition Rate at 10 nM (%)): 10 to 15%
- inhibition at 0.5 µM ([7]; 500 nM, read-out: Inhibition Rate at 500 nM (%)): 60 to 80%
- inhibition at 0.5 µM [1, 8]: 60 to 80%
- inhibition at 0.01 µM [2, 9]: 20 to 25%
- inhibition at 0.01 µM [5]: 3 to 7%
- inhibition at 0.5 µM [5]: 40 to 60%

- Degradation of substrate protein IRAK4 (substrate protein remaining %) [4]: A (0%≤substrate protein remaining %≤80%)
SMILES: COc1cc2nn([C@H]3CC[C@H](CN4CCN(C5CCN(c6ccc7c(c6)C(=O)N(N6CCC(=O)NC6=O)C7=O)CC5(F)F)CC4)CC3)cc2cc1NC(=O)c1cccc(C(F)(F)F)n1 (stereo partly drawn) [GT-08659, N-(2-((1r,4r)-4-((4-(1-(2-(2,4-dioxotetrahydropyrimidin-1(2H)-yl)-1,3-dioxoisoindolin-5-yl)-3,3-difluoropiperidin-4-yl)piperazin-1-yl)methyl)cyclohexyl)-6-methoxy-2H-indazol-5-yl)-6-(trifluoromethyl) picolinamide]
- inhibition at 0.5 µM [1, 8]: 30 to 40%
- inhibition at 0.01 µM [2, 9]: 15 to 20%
- inhibition at 0.01 µM [5]: 10 to 15%
- inhibition at 0.5 µM [5]: 20 to 40%

- Degradation of substrate protein IRAK4 (substrate protein remaining %) [4]: A (0%≤substrate protein remaining %≤80%)
SMILES: COc1cc2nn([C@H]3CC[C@H](CN4C5CCC4CN(c4ccc6c(c4)C(=O)N(N4CCC(=O)NC4=O)C6=O)C5)CC3)cc2cc1NC(=O)c1cccc(C(F)(F)F)c1 [GT-08667, N-(2-((1r,4r)-4-((3-(2-(2,4-dioxotetrahydropyrimidin-1(2H)-yl)-1,3-dioxoisoindolin-5-yl)-3,8-diazabicyclo[3.2.1]octan-8-yl)methyl)cyclohexyl)-6-methoxy-2H-indazol-5-yl)-3-(trifluoromethyl)benzamide]
- inhibition at 0.5 µM [1, 8]: 30 to 40%
- inhibition at 0.01 µM [2, 9]: 20 to 25%
- inhibition at 0.01 µM [5]: 20 to 40%
- inhibition at 0.5 µM [5]: 20 to 40%

- Degradation of substrate protein IRAK4 (substrate protein remaining %) [4]: A (0%≤substrate protein remaining %≤80%)
SMILES: COc1cc2nn([C@H]3CC[C@H](CN4CCN(c5ccc6c(c5)C(=O)N(N5CCC(=O)NC5=O)C6=O)CC4)CC3)cc2cc1NC(=O)c1cccc(C(F)(F)F)c1 [GT-08661, N-(2-((1r,4r)-4-((4-(2-(2,4-dioxotetrahydropyrimidin-1(2H)-yl)-1,3-dioxoisoindolin-5-yl)piperazin-1-yl)methyl)cyclohexyl)-6-methoxy-2H-indazol-5-yl)-3-(trifluoromethyl)benzamide]
- inhibition at 0.5 µM [1, 8]: 25 to 30%
- inhibition at 0.01 µM [2, 9]: 20 to 25%
- inhibition at 0.01 µM [5]: 15 to 20%
- inhibition at 0.5 µM [5]: 15 to 20%
